Several values for one entry are separate records, joined by “and”; a condition that tells them apart may be missing. Equal entries are not always repeated. Entries after “also recorded” stand apart in the source; their conditions may differ.
Experiments:
p75^NTR TMD = target: T1, p75^NTR TMD (Homo sapiens, UniProt P08138); assay: AraTM assay, wild-type p75NTR TMD (GFP/OD630); assay type: cell-based; details: structure-activity comparison
T1 sequence (P08138 250-275 limits assumed): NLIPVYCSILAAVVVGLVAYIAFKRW

A875 NT cells = assay: Wound healing cell motility assay, A875 NT; assay type: cell-based, human; details: for Wound area (Fold), Mean / Wound area (Fold), individual replicates: 10uM
Protocol: For wound healing assay, cells were grown until confluency and subjected to a wound across the cell mono-layer. Cells were then incubated with serum-free media either with DMSO or a small molecule (with or without 5 µM Q_VD_poH) and imaged at specific time-points. Cell migration is reflected as fold change in wound area over time.

AS19 E. coli = assay: Bacterial toxicity (OD630) in the AraTM assay; assay type: cell-based; details: compared with Div17E5

O=C(Nc1ccc([N+](=O)[O-])cc1)c1cncc(-c2ccc3ccccc3c2)n1 [Np75-3A49]
activity in the AraTM assay (p75^NTR TMD): activity was lost

Cc1ccc(-c2cncc(Nc3ccc([N+](=O)[O-])cc3)n2)cc1 [Np75-3A21]
activity in the AraTM assay (p75^NTR TMD): best compounds; also recorded: Np75-3A21 better than -3A19 and -3A20; also recorded: best hit from this series

CN(C)c1cccc(-c2cncc(Nc3ccc(Br)c(Cl)c3Cl)n2)c1 [MS_63]
wound healing assay, comparison of Div17E5, MS_18 and MS_63 (A875 NT cells; 10 µM): lower potency | Wound area (Fold), Mean (A875 NT cells; 0 hours): 1 Fold | Wound area (Fold), individual replicates (A875 NT cells; 0 hours): 1.000 Fold | Wound area (Fold), Mean (A875 NT cells; 3 hours): 0.912 Fold | Wound area (Fold), individual replicates (A875 NT cells; 3 hours): 0.916 Fold and 0.908 Fold | Wound area (Fold), Mean (A875 NT cells; 6 hours): 0.874 Fold | Wound area (Fold), individual replicates (A875 NT cells; 6 hours): 0.869 Fold and 0.879 Fold | Wound area (Fold), Mean (A875 NT cells; 9 hours): 0.827 Fold | Wound area (Fold), individual replicates (A875 NT cells; 9 hours): 0.786 Fold and 0.869 Fold | Wound area (Fold), Mean (A875 NT cells; 12 hours): 0.792 Fold | Wound area (Fold), individual replicates (A875 NT cells; 12 hours): 0.755 Fold and 0.828 Fold | Wound area (Fold), Mean (A875 NT cells; 15 hours): 0.762 Fold | Wound area (Fold), individual replicates (A875 NT cells; 15 hours): 0.728 Fold and 0.796 Fold | Wound area (Fold), Mean (A875 NT cells; 18 hours): 0.73 Fold | Wound area (Fold), individual replicates (A875 NT cells; 18 hours): 0.704 Fold and 0.756 Fold | Wound area (Fold), Mean (A875 NT cells; 21 hours): 0.71 Fold | Wound area (Fold), individual replicates (A875 NT cells; 21 hours): 0.683 Fold and 0.737 Fold | Wound area (Fold), Mean (A875 NT cells; 24 hours): 0.697 Fold | Wound area (Fold), individual replicates (A875 NT cells; 24 hours): 0.666 Fold and 0.729 Fold | bacterial toxicity, as assessed by OD630 (AS19 E. coli): somewhat lower bacterial toxicity

Cc1ccccc1-c1cncc(Nc2ccc([N+](=O)[O-])cc2)n1 [Np75-3A19]
activity in the AraTM assay (p75^NTR TMD): Np75-3A21 better than -3A19 and -3A20

COc1ccccc1-c1cncc(Nc2ccc([N+](=O)[O-])cc2)n1 [Np75-3A01]
activity in the AraTM assay (p75^NTR TMD): MS_18 more potent than Np75-3A01, -3A02

COc1cccc(-c2cncc(Nc3ccc([N+](=O)[O-])cc3)n2)c1 [Np75-3A02]
activity in the AraTM assay (p75^NTR TMD): MS_18 more potent than Np75-3A01, -3A02

— publication PMC12514245, “Impaired migration and lung invasion of human melanoma by a novel small molecule targeting the transmembrane domain of death receptor p75^NTR” (EMBO Molecular Medicine, 2025)
